Where “and” joins values, the source holds several entries; their conditions need not be identical. Equal entries are not always repeated.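 In this assay, cells in 96-well plates receive the compound at five concentrations for 48 hours. Endpoints are linearly interpolated between the surrounding concentrations. The concentration for 50% growth inhibition is given as GI50. TGI: concentration producing complete growth inhibition.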
Tests used:
Assay in all cases: NCI tumour cell line growth inhibition, 48 h
A498 renal = test system: A498 renal
HCC-2998 colon = test system: HCC-2998 colon
K-562 leukemia = test system: K-562 leukemia
M14 melanoma = test system: M14 melanoma
MOLT-4 leukemia = test system: MOLT-4 leukemia
OVCAR-3 ovarian = test system: OVCAR-3 ovarian
OVCAR-5 ovarian = test system: OVCAR-5 ovarian
SNB-19 CNS = test system: SNB-19 CNS
SW-620 colon = test system: SW-620 colon
T-47D breast = test system: T-47D breast

SMILES | TGI (A498 renal) | TGI (HCC-2998 colon) | TGI (K-562 leukemia) | TGI (M14 melanoma) | TGI (MOLT-4 leukemia) | TGI (OVCAR-3 ovarian) | TGI (OVCAR-5 ovarian) | TGI (SNB-19 CNS) | TGI (SW-620 colon) | TGI (T-47D breast) | GI50 (A498 renal) | GI50 (HCC-2998 colon) | GI50 (K-562 leukemia) | GI50 (M14 melanoma) | GI50 (MOLT-4 leukemia) | GI50 (OVCAR-3 ovarian) | GI50 (OVCAR-5 ovarian) | GI50 (SNB-19 CNS) | GI50 (SW-620 colon) | GI50 (T-47D breast)
CCc1nc(N)nc(N)c1-c1ccc(N2CCNCC2)cc1 | > 100 µM | > 100 µM | > 87.2 µM | > 83.9 µM | > 91.8 µM | > 100 µM | > 100 µM | > 93.3 µM | > 100 µM | > 100 µM |  |  |  |  |  |  |  |  |  | 
Cc1cc([N+](=O)[O-])c2ccccc2[n+]1[O-] | 0.464 µM and 0.416 µM | 0.375 µM and 0.664 µM | 4.28 µM and 3.04 µM | 1.08 µM and 1.11 µM | 7.8 µM and 5.95 µM | 1.71 µM and 1.25 µM | 7.21 µM and 7.12 µM | 4.06 µM and 8.29 µM | 0.766 µM and 0.523 µM | 3.23 µM and 4.89 µM | 0.185 µM and 0.144 µM | 0.128 µM and 0.221 µM | 0.156 µM and 0.0991 µM | 0.239 µM and 0.259 µM | 0.869 µM and 1.19 µM | 0.392 µM and 0.319 µM | 2.02 µM and 2.26 µM | 0.448 µM and 0.848 µM | 0.0728 µM and 0.0543 µM | 0.385 µM and 0.534 µM
CC[n+]1c(/C=C/C=C2\N(C)c3ccccc3C2(C)C)sc2ccccc21 | 12 µM | 7.81 µM | 9.43 µM | 8.33 µM | 11.6 µM | 7.52 µM | 11.7 µM | 7.8 µM | 8.27 µM | 11.8 µM | 5.04 µM | 3.86 µM | 4.34 µM | 4.03 µM | 4.44 µM | 3.97 µM | 4.82 µM | 4.1 µM | 4.19 µM | 4.65 µM
c1ccc2c3c([nH]c2c1)C(c1ccc(C2NCCc4c2[nH]c2ccccc42)cc1)NCC3 (stereo not drawn) | 8.87 µM | 1.28 µM | 0.488 µM | 1.58 µM | 1.53 µM | 2.6 µM | 4.17 µM | 3.54 µM | 0.344 µM | 3.06 µM | 1.64 µM | 0.274 µM | 0.244 µM | 0.403 µM | 0.378 µM | 1.24 µM | 1.81 µM | 1.73 µM | 0.185 µM | 1.31 µM
NS(=O)(=O)OCCCCCCCOS(N)(=O)=O | 770 µM | 718 µM | 2110 µM | 579 µM | 790 µM | 835 µM | 1400 µM | 1250 µM | 1280 µM | 1880 µM |  |  |  |  |  |  |  |  |  | 
Cn1cc(C2=C(c3cn(CCCCCSC(=N)N)c4ccccc34)C(=O)NC2=O)c2ccccc21 | 6.97 µM | 7.19 µM | 5.31 µM | 6.87 µM | 6.25 µM | 6.55 µM | 8.26 µM | 6.82 µM | 6.54 µM | 9.63 µM | 3.65 µM | 3.56 µM | 1.49 µM | 3.23 µM | 2.06 µM | 3.22 µM | 4.48 µM | 3.52 µM | 2.96 µM | 3.46 µM
CCCCCCCCCCCC[n+]1ccc2ccccc2c1 | 8.76 µM | 2.32 µM | 1.96 µM | 2.79 µM | 2.65 µM | 1.89 µM | 3.74 µM | 2.22 µM | 2.56 µM | 5.26 µM | 2.57 µM | 1.07 µM | 0.247 µM | 0.588 µM | 0.681 µM | 0.579 µM | 1.34 µM | 0.995 µM | 0.996 µM | 0.406 µM
O=C1NC(=NCCCc2ccccc2)S/C1=C\c1ccc2ncccc2c1 | 8.09 µM | > 25 µM | > 25 µM | > 25 µM | 18.9 µM | 10.6 µM | > 25 µM | > 22.4 µM | > 21.5 µM | 12.3 µM | 3.81 µM | 8.09 µM | 9.12 µM | 9.63 µM | 7.31 µM | 4.81 µM | 8.09 µM | 3.69 µM | 6.37 µM | 4.73 µM
CSC(=Nc1ccccc1)/N=C(\SCc1ccccc1)N(C)C | 5.27 µM | 1.69 µM | > 100 µM | 2.12 µM |  | 2.1 µM | 2.84 µM | 2.68 µM | 1.83 µM | 1.97 µM |  |  |  |  |  |  |  |  |  | 
C#CCOc1ccc2ncnc(Nc3ccc(NC(=O)C=C)cc3)c2c1 | > 100 µM | > 100 µM | 23.6 µM | > 100 µM | > 100 µM | > 100 µM | > 100 µM | > 100 µM | 33.1 µM | > 100 µM | > 100 µM | > 100 µM | 3.38 µM | 34.4 µM | 28.4 µM | 8.24 µM | > 100 µM | > 100 µM | 6.3 µM | 3.53 µM
CC1=C(C(=O)Nc2ccc(Cl)c(C(=O)OC(C)C)c2)SCCO1 | 90.9 µM | 75 µM | > 90.2 µM | > 100 µM | 84.4 µM | > 100 µM | 75.3 µM | > 77.4 µM | > 79.4 µM | > 100 µM |  |  |  |  |  |  |  |  |  | 
CC(=O)[O][Hg][c]1c(C)c(C)cc(C)c1C | 4.38 µM | 2.72 µM | 11 µM | 2.88 µM | 4.54 µM | 2.71 µM | 3.84 µM | 3.76 µM | 2.31 µM | 4.79 µM | 2.09 µM | 1.37 µM | 0.743 µM | 1.36 µM | 0.242 µM | 1.36 µM | 1.94 µM | 1.7 µM | 0.732 µM | 1.68 µM
CCOC(=O)COc1ccc2c(C)cc(=O)oc2c1 | > 100 µM | > 100 µM | > 100 µM | > 100 µM | > 100 µM | > 100 µM | > 100 µM | > 100 µM | > 100 µM | > 100 µM |  |  |  |  |  |  |  |  |  | 
COc1cc2c(=O)[nH]c3cc([N+](=O)[O-])ccc3c2cc1[N+](=O)[O-] | > 100 µM | > 100 µM | > 100 µM | > 100 µM | > 100 µM | 31.7 µM | > 100 µM | > 100 µM | > 100 µM | > 100 µM | 2.46 µM | 19.5 µM | 5.97 µM | 7 µM | 3.9 µM | 3.85 µM | 63.4 µM | 24.1 µM | 3.81 µM | 3.52 µM
CN(C)C(=S)SCC(=O)Nc1ccccc1 | > 100 µM | > 100 µM | > 100 µM | > 100 µM | > 100 µM | > 100 µM | > 100 µM |  | > 100 µM | > 100 µM |  |  |  |  |  |  |  |  |  | 
